system: barnyardgrass; experiment: Test Example 2: soil surface treatment, upland pot test; format: in vivo, Echinochloa crus-galli L.; conditions: active ingredient 500 g/ha, observed 20th to 28th day
Method in brief: (§1)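 Upland soil in pots of 1/170,000 ha is sown; on day 1 after sowing the formulated compound (wettable powder or emulsifiable concentrate, predetermined a.i. amount, water volume 1,500 L/ha) is applied to the soil surface with a small sprayer. Percent control is judged by eye 20–28 days later.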

| SMILES | Growth controlling degree (%) Barnyardgrass [%] |
| --- | --- |
| CC(C)C(c1cnccc1C(F)(F)F)N(C)C(=O)CCc1ccccc1 (centres unmarked) [I-169] | 100 |
| CCc1ccc(CC(=O)N(C)C(c2cnccc2C(F)(F)F)C(C)C)cc1 (centres unmarked) [I-95] | 95 |

system: crabgrass; experiment: as above; format: in vivo, Digitaria sanguinalis L.; conditions: active ingredient 500 g/ha, observed 20th to 28th day
Method in brief: as §1

| SMILES | Growth controlling degree (%) Crabgrass [%] |
| --- | --- |
| CC(C)C(c1cnccc1C(F)(F)F)N(C)C(=O)CCc1ccccc1 (centres unmarked) [I-169] | 98 |
| CCc1ccc(CC(=O)N(C)C(c2cnccc2C(F)(F)F)C(C)C)cc1 (centres unmarked) [I-95] | 98 |

system: green foxtail; experiment: as above; format: in vivo, Setaria viridis L.; conditions: active ingredient 500 g/ha, observed 20th to 28th day
Method in brief: as §1

| SMILES | Growth controlling degree (%) Green foxtail [%] |
| --- | --- |
| CC(C)C(c1cnccc1C(F)(F)F)N(C)C(=O)CCc1ccccc1 (centres unmarked) [I-169] | 100 |
| CCc1ccc(CC(=O)N(C)C(c2cnccc2C(F)(F)F)C(C)C)cc1 (centres unmarked) [I-95] | 90 |

system: redroot pigweed; experiment: as above; format: in vivo, Amaranthus retroflexus L.; conditions: active ingredient 500 g/ha, observed 20th to 28th day
Method in brief: as §1

| SMILES | Growth controlling degree (%) Redroot pigweed [%] |
| --- | --- |
| CC(C)C(c1cnccc1C(F)(F)F)N(C)C(=O)CCc1ccccc1 (centres unmarked) [I-169] | 70 |
| CCc1ccc(CC(=O)N(C)C(c2cnccc2C(F)(F)F)C(C)C)cc1 (centres unmarked) [I-95] | 60 |

system: prickly sida; experiment: as above; format: in vivo, Sida spinosa L.; conditions: active ingredient 500 g/ha, observed 20th to 28th day
Method in brief: as §1

| SMILES | Growth controlling degree (%) Prickly sida [%] |
| --- | --- |
| CC(C)C(c1cnccc1C(F)(F)F)N(C)C(=O)CCc1ccccc1 (centres unmarked) [I-169] | 90 |
| CCc1ccc(CC(=O)N(C)C(c2cnccc2C(F)(F)F)C(C)C)cc1 (centres unmarked) [I-95] | 80 |

system: velvetleaf; experiment: as above; format: in vivo, Abutilon theophrasti MEDIC.; conditions: active ingredient 500 g/ha, observed 20th to 28th day
Method in brief: as §1

| SMILES | Growth controlling degree (%) Velvetleaf [%] |
| --- | --- |
| CC(C)C(c1cnccc1C(F)(F)F)N(C)C(=O)CCc1ccccc1 (centres unmarked) [I-169] | 20 |
| CCc1ccc(CC(=O)N(C)C(c2cnccc2C(F)(F)F)C(C)C)cc1 (centres unmarked) [I-95] | 30 |

system: rice; experiment: as above; format: in vivo, Oryza sativa L.; conditions: active ingredient 500 g/ha, observed 20th to 28th day
Method in brief: as §1

| SMILES | Growth controlling degree (%) Rice [%] |
| --- | --- |
| CC(C)C(c1cnccc1C(F)(F)F)N(C)C(=O)CCc1ccccc1 (centres unmarked) [I-169] | 40 |
| CCc1ccc(CC(=O)N(C)C(c2cnccc2C(F)(F)F)C(C)C)cc1 (centres unmarked) [I-95] | 10 |

system: corn; experiment: as above; format: in vivo, Zea mays L.; conditions: active ingredient 500 g/ha, observed 20th to 28th day
Method in brief: as §1

| SMILES | Growth controlling degree (%) Corn [%] |
| --- | --- |
| CC(C)C(c1cnccc1C(F)(F)F)N(C)C(=O)CCc1ccccc1 (centres unmarked) [I-169] | 40 |
| CCc1ccc(CC(=O)N(C)C(c2cnccc2C(F)(F)F)C(C)C)cc1 (centres unmarked) [I-95] | 10 |

system: soybean; experiment: as above; format: in vivo, Glycine max Merr.; conditions: active ingredient 500 g/ha, observed 20th to 28th day
Method in brief: as §1

| SMILES | Growth controlling degree (%) Soyabean [%] |
| --- | --- |
| CC(C)C(c1cnccc1C(F)(F)F)N(C)C(=O)CCc1ccccc1 (centres unmarked) [I-169] | 30 |
| CCc1ccc(CC(=O)N(C)C(c2cnccc2C(F)(F)F)C(C)C)cc1 (centres unmarked) [I-95] | 30 |

system: barnyardgrass; experiment: Test Example 3: paddy pot test, application under submerged conditions; format: in vivo, Echinochloa crus-galli L.; conditions: active ingredient 250 g/ha; submerged application at 0.5 leaf stage; visually observed 14 days after application; 0 = non-treated, 100 = complete kill
Method in brief: (§2)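 Visual growth-control rating (0 = untreated, 100 = complete kill) 14 days after treatment. The formulated compound, as a diluted wettable powder or emulsifiable concentrate, went into 3–4 cm flood water at a predetermined active-ingredient dose once the weeds reached 0.5 leaf stage (wapato: primary leaf stage).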

| SMILES | Growth controlling degree (%) Barnyardgrass [%] |
| --- | --- |
| CC(C)C(c1cnccc1C(F)(F)F)N(C)C(=O)CCc1ccccc1 (centres unmarked) [I-169] | 100 |
| CCc1ccc(CC(=O)N(C)C(c2cnccc2C(F)(F)F)C(C)C)cc1 (centres unmarked) [I-95] | 100 |

system: japanese bulrush; experiment: as above; format: in vivo, Scirpus juncoides; conditions: active ingredient 250 g/ha; submerged application at 0.5 leaf stage; visually observed 14 days after application; 0 = non-treated, 100 = complete kill
Method in brief: as §2

| SMILES | Growth controlling degree (%) Japanese bulrush [%] |
| --- | --- |
| CC(C)C(c1cnccc1C(F)(F)F)N(C)C(=O)CCc1ccccc1 (centres unmarked) [I-169] | 50 |
| CCc1ccc(CC(=O)N(C)C(c2cnccc2C(F)(F)F)C(C)C)cc1 (centres unmarked) [I-95] | 98 |

system: japanese ribbon wapato; experiment: as above; format: in vivo, Sagittaria pygniaea; conditions: active ingredient 250 g/ha; submerged application at primary leaf stage; visually observed 14 days after application; 0 = non-treated, 100 = complete kill
Method in brief: as §2

| SMILES | Growth controlling degree (%) Japanese ribbon wapato [%] |
| --- | --- |
| CC(C)C(c1cnccc1C(F)(F)F)N(C)C(=O)CCc1ccccc1 (centres unmarked) [I-169] | 0 |
| CCc1ccc(CC(=O)N(C)C(c2cnccc2C(F)(F)F)C(C)C)cc1 (centres unmarked) [I-95] | 20 |

system: rice (var. Nihonbare); experiment: Test Example 3: paddy pot test, transplanted rice; format: in vivo, Oryza sativa L.; conditions: active ingredient 250 g/ha, applied 4th day after transplantation, visually observed 21st day after application, 0 = non-treated, 100 = complete kill
Method in brief: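 Rice (var. Nihonbare) at 2 leaf stage transplanted 3 cm deep into puddled paddy soil under 3–4 cm flooding; on day 4 after transplanting, diluted wettable powder or emulsifiable concentrate applied by pipette under submerged conditions at a set active-ingredient dose. Growth scored visually 21 days after application, 0 (untreated) to 100 (complete kill) %.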

| SMILES | Growth controlling degree (%) Rice [%] |
| --- | --- |
| CC(C)C(c1cnccc1C(F)(F)F)N(C)C(=O)CCc1ccccc1 (centres unmarked) [I-169] | 10 |
| CCc1ccc(CC(=O)N(C)C(c2cnccc2C(F)(F)F)C(C)C)cc1 (centres unmarked) [I-95] | 0 |

— US20050239656A1, “Pyridine compounds or salts thereof and herbicides containing the same” (priority 2002, published 2005)
